According to patent US11464770B2, “Anticancer pharmaceutical composition” (NATIONAL CANCER CENTER, priority 2016, dated 2022):

Tested on: zebrafish
Assay: Cardiotoxicity experiment using zebrafish (heart rate, lethality)
Assay type: in vivo
Settings: 10 uM, n = 10

## COc1ccc(CCN2CCC(Nc3nc4ccccc4n3Cc3ccc(F)cc3)CC2)cc1 [Astemizole, reference compound]
mean
  Changes (%) in heart rate: 46.2%
  Lethality: 0/10
